Assay results published in patent publication US8551984B2, “Aminopyrimidines as SYK inhibitors” (Merck Sharp & Dohme Corp., priority 2009, dated 2013).

Molecular target: recombinant human SYK (GST-hSYK fusion protein) (Homo sapiens, UniProt P43405)
Assay: biochemical
[1] = rhSYK Activity (IC50), recombinant human GST-SYK 5 pM, ATP 25 μM, biotinylated substrate peptide 250 nM, HTRF, 10-dose titration

Source text: Homogeneous Time-Resolved Fluorescence (HTRF) Assay for the Recombinant Human SYK Enzyme:

Compound: Cc1cc(Nc2ncc(F)c(C3CC3)n2)cc(-c2cnc([C@]3(O)CC[C@@H](C(=O)O)[C@@H](C)C3)s2)c1 [Example 113A-34]
- IC50 (rhSYK Activity, Table 113A): < 0.1 µM

Compound: Cc1cc(Nc2nccc(C(F)(F)F)n2)cc(-c2cnc(C3(NS(=O)(=O)CF)CCC3)s2)c1 [Example 61B-3]
- IC50 (rhSYK Activity, Table 61B): < 0.1 µM

Compound: Cc1cc(Nc2nccc(C(F)(F)F)n2)cc(-c2cnc(C3=CC(=O)CC3)s2)c1 [Example 36A-6]
- IC50 (rhSYK Activity, Table 36A): < 0.1 µM

Compound: Cc1cc(Nc2nccc(OC(C)C)n2)cc(-c2cnc(C3(O)CCC3)s2)c1 [Example 108A-37]
- IC50 (rhSYK Activity, Table 108A): < 0.1 µM

Compound: Cc1cc(Nc2nccc(C(F)(F)F)n2)cc(-c2cnc(C3(O)CCC(NC(=O)CC(N)=O)CC3)s2)c1 (centres unmarked) [Example 54E-3]
- IC50 (rhSYK Activity, Table 54E): < 0.1 µM

Compound: Cc1cc(Nc2nccc(C)n2)cc(-c2cnc(C3(O)CC(C)C(C(=O)O)CC3C)s2)c1 (centres unmarked) [Example 113B-3]
- IC50 (rhSYK Activity, Table 113B): < 0.1 µM

Compound: Cc1cc(Nc2nccc(C(F)(F)F)n2)cc(-c2cnc(C(O)(c3ccc(/C=C/C(=O)O)cc3)C3CC3)s2)c1 (centres unmarked) [Example 33D-24]
- IC50 (rhSYK Activity, Table 33D): < 0.1 µM

Compound: Cc1cc(Nc2nccc(C(F)(F)F)n2)cc(-c2cnc(C(=O)NCc3ncc[nH]3)s2)c1 [Example 87A-25]
- IC50 [1]: < 0.1 µM

Compound: Cc1cc(Nc2nccc(C(F)(F)F)n2)cc(-c2cnc(CCC(=O)N3CCOCC3)s2)c1 [Example 79-5]
- IC50 [1]: < 0.1 µM

Compound: Cc1cc(Nc2nccc(C(F)(F)F)n2)cc(-c2cnc(CO)s2)c1 [Example 89, [5-(3-methyl-5-{[4-(trifluoromethyl)pyrimidin-2-yl]amino}phenyl)-1,3-thiazol-2-yl]methanol]
- IC50 [1]: < 0.1 µM

Compound: COC(=O)[C@H]1CC[C@](O)(c2ncc(-c3cc(C)cc(Nc4nccc(C(C)C)n4)c3)s2)CC1(C)C [Example 101-2]
- IC50 [1]: < 0.1 µM

Compound: Cc1cc(Nc2nccc(C(F)C3CC3)n2)cc(-c2cnc(C3(O)CCC(C(=O)O)C(C)(C)C3)s2)c1 (centres unmarked) [Example 100A-20]
- IC50 [1]: < 0.1 µM

Compound: Cc1cc(Nc2nccc(C(F)(F)F)n2)cc(-c2cnc(C(=O)NC3CCC(C(=O)O)CC3)s2)c1 (centres unmarked) [Example 87A-37]
- IC50 [1]: < 0.1 µM

Compound: Cc1cc(Nc2nccc(C(F)(F)F)n2)cc(-c2cnc(C3(NC(N)=O)COC3)s2)c1 [Example 64-1]
- IC50 (rhSYK Activity, Table 64, first part): < 0.1 µM

Compound: Cc1cc(Nc2nccc(C(F)(F)F)n2)cc(-c2cnc(C3(NS(=O)(=O)CC(F)(F)F)CCC3)s2)c1 [Example 61B-2]
- IC50 (rhSYK Activity, Table 61B): < 0.1 µM

Compound: Cc1cc(Nc2ncc(F)cn2)cc(-c2cnc(C3(O)CCC(C(=O)O)C(C)(C)C3)s2)c1 (single isomer, unassigned) [Example 33A-47]
- IC50 (rhSYK Activity, Table 33-A): < 0.1 µM

Compound: CCOC(=O)C1CC=C(c2ncc(-c3cccc(Nc4nccc(C(F)(F)F)n4)c3)s2)CC1 (centres unmarked) [Example 36A-1]
- IC50 (rhSYK Activity, Table 36A): 0.1 to 1 µM

Compound: CCOC(=O)C1[C@H]2CC(O)(c3ncc(-c4cc(C)cc(Nc5nccc(C(F)(F)F)n5)c4)s3)C[C@@H]12 (some centres unmarked) [Example 33C-11]
- IC50 (rhSYK Activity, Table 33C): < 0.1 µM

Compound: Cc1cc(Nc2nccc(C(F)(F)F)n2)cc(-c2cnc(C3(O)CCN(C(=O)C4CNC(=O)N4)CC3)s2)c1 (centres unmarked) [Example 54A-39]
- IC50 (RHSYK Activity, Table 54A): < 0.1 µM

Compound: Cc1cc(Nc2nccc(OCC3CCOCC3)n2)cc(-c2cnc(C3(O)CCC3)s2)c1 [Example 94A-7]
- IC50 [1]: < 0.1 µM

Compound: COC(=O)C1CCC(O)(c2ncc(-c3cc(Nc4nccc(C(F)(F)F)n4)cc(C(F)F)c3)s2)CC1(C)C (centres unmarked) [Example 33A-55]
- IC50 (rhSYK Activity, Table 33-A): 0.1 to 1 µM

Compound: Cc1cc(Nc2nccc(C(F)(F)F)n2)cc(-c2cnc(CN(C)CCO)s2)c1 [Example 88A-12]
- IC50 [1]: < 0.1 µM

Compound: Cc1cc(Nc2nccc(C(F)(F)F)n2)cc(-c2cnc(CN(C)CCS(C)(=O)=O)s2)c1 [Example 88A-25]
- IC50 [1]: < 0.1 µM

Compound: Cc1cc(Nc2nccc(C(F)(F)F)n2)cc(-c2cnc(C34CCC(C(=O)O3)C(C)(C)C4)s2)c1 (stereo not drawn) [Example 139, Cis-5,5-dimethyl-1-[5-(3-methyl-5-{[4-(trifluoromethyl)pyrimidin-2-yl]amino}phenyl)-1,3-thiazol-2-yl]-2-oxabicyclo[2.2.2]octan-3-one]
- IC50 [1]: 0.1 to 1 µM

Compound: Cc1cc(Nc2nccc(OCC3CN(C)CCN3C)n2)cc(-c2cnc(C3(O)CCC3)s2)c1 (centres unmarked) [Example 108A-20]
- IC50 (rhSYK Activity, Table 108A): < 0.1 µM

Compound: COC(=O)C1CCC(O)(c2ncc(-c3cc(C)cc(Nc4nccc(C)n4)c3)s2)CC1(C)C (centres unmarked) [Example 33A-69]
- IC50 (rhSYK Activity, Table 33-A): < 0.1 µM

Compound: CCNC(=O)Nc1cc(Nc2nccc(C(F)(F)F)n2)cc(-c2cnc(C3(O)CCC3)s2)c1 [Example 19-1]
- IC50 (rhSYK Activity, table of Examples 19-x): < 0.1 µM

Compound: Cc1cc(Nc2nccc(C(F)(F)F)n2)cc(-c2cnc(C3(O)CCC(O)C4(CC4)C3)s2)c1 (centres unmarked) [Example 143(A), 7-[5-(3-methyl-5-{[4-(trifluoromethyl)pyrimidin-2-yl]amino}phenyl)-1,3-thiazol-2-yl]spiro[2.5]octane-4,7-diol]
- IC50 [1]: < 0.1 µM

Compound: Cc1cc(Nc2nccc(C(F)(F)F)n2)cc(-c2cnc(CN(CCO)CCO)s2)c1 [Example 88A-13]
- IC50 [1]: < 0.1 µM

Compound: Cc1cc(Nc2nccc(C(F)(F)F)n2)cc(-c2cnc(CNCc3n[nH]c(=O)[nH]3)s2)c1 [Example 88A-3]
- IC50 [1]: < 0.1 µM

Compound: CC(C)(O)c1ncc(-c2cc(Nc3nccc(C(F)(F)F)n3)cc(C(F)F)c2)s1 [28-1]
- IC50 (hSYK Activity, table of Example 28-1): < 0.1 µM

Compound: Cc1cc(Nc2nccc(C(F)(F)F)n2)cc(-c2cnc(CN3CCOC(CCO)C3)s2)c1 (centres unmarked) [Example 88B-11]
- IC50 [1]: < 0.1 µM

Compound: Cc1cc(Nc2nccc(C3CC3)n2)cc(-c2cnc([C@]3(O)CC[C@@H](C(=O)O)CC3)s2)c1 [110(1), Cis-4-(5-(3-[(4-cyclopropylpyrimidin-2-yl)amino]-5-methylphenyl)-1,3-thiazol-2-yl)-4-hydroxycyclohexanecarboxylic acid]
- IC50 [1]: < 0.1 µM

Compound: Cc1cc(Nc2nccc(C(C)(O)C3CC3)n2)cc(-c2cnc(C3(O)CCC(C(=O)O)C(C)(C)C3)s2)c1 (centres unmarked) [Example 100A-24]
- IC50 [1]: < 0.1 µM

Compound: Cc1cc(Nc2nccc(C(F)(F)F)n2)cc(-c2cnc(CN3CCCC(C)(O)C3)s2)c1 (centres unmarked) [Example 88B-1]
- IC50 [1]: < 0.1 µM

Compound: Cc1cc(Nc2nccc(C(F)(F)F)n2)cc(-c2cnc(C3(O)CCCN(S(N)(=O)=O)CC3)s2)c1 (centres unmarked) [Example 54D-115]
- IC50 (rhSYK Activity, Table 54D): < 0.1 µM

Compound: Cc1cc(Nc2nc(C)cc(C)n2)cc(-c2cnc(C3(O)CCC(C(=O)O)C(C)(C)C3)s2)c1 (centres unmarked) [Example 100A-9]
- IC50 [1]: 0.1 to 1 µM

Compound: Cc1cc(Nc2nccc(C(F)(F)F)n2)cc(-c2cnc(C3(O)CCCN(C(=O)CC(C)(C)O)CC3)s2)c1 (centres unmarked) [Example 54D-44]
- IC50 (rhSYK Activity, Table 54D): < 0.1 µM

Compound: COc1ccnc(Nc2cc(C)cc(-c3cnc(CS(N)(=O)=O)s3)c2)n1 [Example 75-2]
- IC50 (rhSYK Activity, table after Example 75): < 0.1 µM

Compound: COCCCOc1ccnc(Nc2cc(C)cc(-c3cnc(C4(O)CCC4)s3)c2)n1 [Example 94A-12]
- IC50 [1]: < 0.1 µM

Compound: COc1ccnc(Nc2cc(C)cc(-c3cnc(C4(O)CCC(C(=O)O)C(C)(C)C4)s3)c2)n1 (single isomer, unassigned) [Example 33A-72]
- IC50 (rhSYK Activity, Table 33-A): < 0.1 µM

Compound: Cc1cc(Nc2nccc(C(C)C)n2)cc(-c2cnc(C3(O)CCC(C(=O)O)C(C)(C)C3)s2)c1 (centres unmarked) [Example 113A-52]
- IC50 (rhSYK Activity, Table 113A): < 0.1 µM

Compound: Cc1cc(Nc2nccc(C(F)(F)F)n2)cc(-c2cnc(C3(O)CC(C)C(C(=O)OC(C)C)C(C)C3)s2)c1 (centres unmarked) [Example 113B-26]
- IC50 (rhSYK Activity, Table 113B): 1 to 10 µM

Compound: Cc1cc(Nc2nccc(OC3CCCNCC3)n2)cc(-c2cnc(C3(O)CCC3)s2)c1 (centres unmarked) [Example 94A-21]
- IC50 [1]: < 0.1 µM

Compound: COCc1cc(Nc2nccc(C(F)(F)F)n2)cc(-c2cnc(C3(O)CCNC(=O)CC3)s2)c1 (centres unmarked) [Example 10A-4]
- IC50 (rhSYK Activity, Table 10, Formula A): < 0.1 µM

Compound: Cc1cc(Nc2nccc(C(F)(F)F)n2)cc(-c2cnc(C3(O)CCC(NC(=O)CCC(N)=O)CC3)s2)c1 (centres unmarked) [Example 54E-8]
- IC50 (rhSYK Activity, Table 54E): < 0.1 µM

Compound: Cc1cc(Nc2nccc(C(F)(F)F)n2)cc(-c2cnc(C3(O)CCN(C(=O)C4CCOC4)CC3)s2)c1 (centres unmarked) [Example 54A-32]
- IC50 (RHSYK Activity, Table 54A): < 0.1 µM
